Literature values in patent US20130296440A1 (CHROMADEX INC., priority 2012, published 2013).
Like-named read-outs stand apart in the source and are kept apart here.

Legend:
PLA2 = conditions: cultured cells
5-LOX = target: T1, 5-LOX (Homo sapiens, UniProt P09917); conditions: cultured cells
T1 construct: endogenous in cells
T1 sequence (P09917 1-674): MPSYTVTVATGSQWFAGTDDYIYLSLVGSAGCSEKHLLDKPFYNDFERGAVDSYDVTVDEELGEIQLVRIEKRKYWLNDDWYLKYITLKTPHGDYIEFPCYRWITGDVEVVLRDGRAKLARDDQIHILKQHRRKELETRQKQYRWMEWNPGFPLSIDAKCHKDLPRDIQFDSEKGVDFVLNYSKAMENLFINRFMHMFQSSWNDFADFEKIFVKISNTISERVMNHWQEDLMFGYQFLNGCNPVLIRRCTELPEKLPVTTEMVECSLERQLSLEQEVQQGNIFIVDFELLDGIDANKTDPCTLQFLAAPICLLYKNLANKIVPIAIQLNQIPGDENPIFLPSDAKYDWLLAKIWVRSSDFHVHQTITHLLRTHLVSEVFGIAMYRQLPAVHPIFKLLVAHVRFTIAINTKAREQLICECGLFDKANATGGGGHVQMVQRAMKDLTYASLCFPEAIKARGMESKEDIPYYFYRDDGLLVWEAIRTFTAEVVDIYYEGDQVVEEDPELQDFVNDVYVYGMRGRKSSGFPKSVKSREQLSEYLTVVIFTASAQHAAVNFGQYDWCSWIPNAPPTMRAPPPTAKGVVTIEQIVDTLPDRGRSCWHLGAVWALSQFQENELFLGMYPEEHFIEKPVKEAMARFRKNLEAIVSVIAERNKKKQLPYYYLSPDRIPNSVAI

COX-2 = conditions: cultured cells
[1] = for bioavailability: in vivo; for half life t1/2: in blood
H4IIEC3 rat liver cells = conditions: 100 μM
CYP1A1 = target: T2, CYP1A1 (Homo sapiens, UniProt P04798); conditions: human recombinant
T2 sequence (P04798 1-512): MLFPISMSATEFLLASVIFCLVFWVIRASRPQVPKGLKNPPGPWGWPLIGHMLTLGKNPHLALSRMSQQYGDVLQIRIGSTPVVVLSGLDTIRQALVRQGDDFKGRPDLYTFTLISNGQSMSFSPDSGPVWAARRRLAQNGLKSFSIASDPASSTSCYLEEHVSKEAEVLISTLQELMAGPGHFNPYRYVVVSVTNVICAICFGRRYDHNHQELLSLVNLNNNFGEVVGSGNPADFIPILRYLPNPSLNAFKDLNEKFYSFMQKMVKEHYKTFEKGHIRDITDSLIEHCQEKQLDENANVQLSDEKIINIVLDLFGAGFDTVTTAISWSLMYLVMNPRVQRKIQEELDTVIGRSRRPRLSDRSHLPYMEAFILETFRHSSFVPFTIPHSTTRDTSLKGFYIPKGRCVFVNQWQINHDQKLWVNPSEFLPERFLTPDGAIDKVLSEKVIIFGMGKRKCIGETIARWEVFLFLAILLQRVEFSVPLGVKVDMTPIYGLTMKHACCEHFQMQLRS

CYP1B1 = target: T3, CYP1B1 (Homo sapiens, UniProt Q16678); conditions: human recombinant
T3 sequence (Q16678 1-543): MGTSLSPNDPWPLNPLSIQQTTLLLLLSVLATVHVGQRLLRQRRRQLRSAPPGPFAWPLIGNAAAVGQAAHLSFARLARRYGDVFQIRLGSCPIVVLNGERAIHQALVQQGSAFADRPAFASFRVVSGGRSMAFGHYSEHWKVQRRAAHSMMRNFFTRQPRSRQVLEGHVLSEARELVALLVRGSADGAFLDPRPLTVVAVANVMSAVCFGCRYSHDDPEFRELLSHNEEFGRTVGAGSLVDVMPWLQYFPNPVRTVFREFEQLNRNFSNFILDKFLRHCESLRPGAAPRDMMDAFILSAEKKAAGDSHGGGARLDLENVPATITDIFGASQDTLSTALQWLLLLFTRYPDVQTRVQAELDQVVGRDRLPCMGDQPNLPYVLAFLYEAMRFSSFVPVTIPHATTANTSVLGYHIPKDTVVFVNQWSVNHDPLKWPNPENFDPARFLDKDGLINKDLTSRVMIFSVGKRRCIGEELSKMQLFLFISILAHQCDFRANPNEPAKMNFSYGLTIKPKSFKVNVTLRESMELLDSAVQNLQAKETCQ

CYP2E1 = CYP2E1 (Homo sapiens, UniProt P05181)
rat smooth muscle cells = conditions: in vitro
[2] = mice; 28-day; 160 pound human equivalent doses of approximately 125 mg/day, 1.25 g/day and 12.5 g/day
PPAR-alpha = target: T4, PPAR-alpha (Rattus norvegicus, UniProt P37230); conditions: for PPAR-alpha activation: luciferase reporter
T4 construct: Using a luciferase reporter gene construct containing the peroxisome proliferator response element promoter region; endogenous in cells; host or cells: H4IIEC3 rat liver cells
T4 sequence (P37230 1-468): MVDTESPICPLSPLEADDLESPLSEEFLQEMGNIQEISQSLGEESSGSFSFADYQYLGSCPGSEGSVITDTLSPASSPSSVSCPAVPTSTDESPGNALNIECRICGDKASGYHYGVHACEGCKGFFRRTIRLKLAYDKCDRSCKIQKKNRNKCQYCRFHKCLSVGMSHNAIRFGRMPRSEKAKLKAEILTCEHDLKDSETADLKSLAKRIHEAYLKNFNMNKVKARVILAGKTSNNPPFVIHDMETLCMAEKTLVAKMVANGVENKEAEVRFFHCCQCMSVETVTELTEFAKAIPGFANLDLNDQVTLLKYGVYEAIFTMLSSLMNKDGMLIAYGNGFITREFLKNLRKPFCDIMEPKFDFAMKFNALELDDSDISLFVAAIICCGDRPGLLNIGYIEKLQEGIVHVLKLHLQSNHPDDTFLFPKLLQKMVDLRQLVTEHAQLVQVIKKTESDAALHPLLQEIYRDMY

[3] = 100 μM, H4IIEC3 rat liver cells

Chain of CYP2E1 (P05181 whole entry, species assumed): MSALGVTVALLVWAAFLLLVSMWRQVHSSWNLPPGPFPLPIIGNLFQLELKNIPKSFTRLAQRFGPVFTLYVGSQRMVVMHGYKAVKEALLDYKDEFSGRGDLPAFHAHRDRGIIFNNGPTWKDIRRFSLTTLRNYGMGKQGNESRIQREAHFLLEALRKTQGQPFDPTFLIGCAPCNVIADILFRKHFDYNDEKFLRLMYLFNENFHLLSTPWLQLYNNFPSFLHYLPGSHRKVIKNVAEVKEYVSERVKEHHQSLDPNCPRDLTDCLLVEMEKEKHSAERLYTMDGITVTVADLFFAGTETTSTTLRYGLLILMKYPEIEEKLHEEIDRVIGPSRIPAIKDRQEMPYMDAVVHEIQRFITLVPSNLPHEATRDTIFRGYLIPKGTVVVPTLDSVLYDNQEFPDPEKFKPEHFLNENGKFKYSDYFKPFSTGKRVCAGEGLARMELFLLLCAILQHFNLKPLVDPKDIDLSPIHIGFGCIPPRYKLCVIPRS

Question: For `COc1cc(/C=C/C(=O)CC(=O)/C=C/c2ccc(O)c(OC)c2)ccc1O` [curcumin, (1E,6E)-1,7-Bis(4-hydroxy-3-methoxyphenyl)-1,6-heptadiene-3,5-dione], which PLA2 activity (PLA2) is on record?
Answer: Its PLA2 activity is “inhibit”.

Question: And the 5-LOX activity (5-LOX)?
Answer: Its 5-LOX activity is “inhibit”.

Question: And the COX-2 activity (COX-2)?
Answer: The COX-2 activity was “inhibit”.

Question: What about the water solubility of the same molecule?
Answer: The water solubility was “minimally water soluble”.

Question: And the bioavailability [1]?
Answer: The bioavailability was “poor bioavailability”.

Question: Which toxicity to cells (H4IIEC3 rat liver cells) does the source give for `Oc1ccc(C=Cc2cc(O)cc(O)c2)cc1` [resveratrol, reference compound] here?
Answer: The toxicity to cells was “toxic to cells”.

Question: What about the “half life t1/2” value [1] of the same molecule?
Answer: Its value is 10 to 14 min.

Question: What about the bioavailability [1] of the same molecule?
Answer: Its bioavailability is “poor bioavailability”.

Question: What does the source list for `COc1cc(/C=C/c2ccc(O)cc2)cc(OC)c1` [pterostilbene, trans-3,5-dimethoxy-4′-hydroxystilbene]?
Answer: inhibition of CYP1A1 isozyme (CYP1A1): inhibit; inhibition of CYP1B1 isozyme (CYP1B1): inhibit; inhibition of CYP2E1 (CYP2E1): not; proliferation of rat smooth muscle cells (rat smooth muscle cells): inhibit; local or systemic toxicity [2]: no local or systemic toxicity; PPAR-alpha activation relative to 100 μM of ciprofibrate (PPAR-alpha; [3]): ~2 fold; PPAR-alpha activation (PPAR-alpha; [3]): 8 fold over the control; PPAR-alpha activation (PPAR-alpha; 300 μM, H4IIEC3 rat liver cells): 14 fold over the control; PPAR-alpha activation within a group of similar stilbenes (PPAR-alpha; in a manner similar to ciprofibrate (Rimando 2005)): activated PPAR-alpha; half life t1/2 [1]: 74 to 105 min; bioavailability [1]: orally bioavailable
